Here are results for 14 compounds from PubChem BioAssay (NCI).

Several values for one entry are separate records, joined by “and”; a condition that tells them apart may be missing. Equal values may be shown once.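 Five concentrations, 48 hours, 96-well plates. At the GI50, growth is halved. TGI is the concentration that stops growth completely.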 Some results are limits rather than exact numbers.

Among the test systems are A549 NSCLC; HCC-2998 colon; HOP-62 NSCLC; M14 melanoma; MOLT-4 leukemia; SF-295 CNS; TK-10 renal; UACC-257 melanoma; SK-MEL-28 melanoma.
Common to all, as to assay: inhibition of tumour cell growth, NCI panel, 48 h

Take `Cc1cccc(NC(=O)/C(=N\NC(C)(C)C)C2NC(=S)NC2=O)c1C` (configuration not stated): the TGI in the assay on A549 NSCLC, with HCC-2998 colon, in the assay on HOP-62 NSCLC, with M14 melanoma, in the assay on MOLT-4 leukemia and with SF-295 CNS was greater than 100 µM each time. Moreover, the TGI in the assay with TK-10 renal and in the assay with UACC-257 melanoma was greater than 100 µM in each case.

In the case of `Cc1ccc(C2=C(c3ccccc3)C(Br)(c3ccc(C)cc3)C(c3ccccc3)=C2c2ccc(C)cc2)cc1`, the TGI in the assay on A549 NSCLC, with HCC-2998 colon, in the assay with HOP-62 NSCLC, with M14 melanoma, in the assay on MOLT-4 leukemia and in the assay on SF-295 CNS was greater than 100 µM throughout. Moreover, the TGI in the assay on SK-MEL-28 melanoma, in the assay with TK-10 renal and in the assay with UACC-257 melanoma was greater than 100 µM in each case.

Regarding `COc1cc(C=C2C(=O)NC(=O)NC2=O)cc(OC)c1OC`, the TGI in the assay on A549 NSCLC, in the assay on HCC-2998 colon, with HOP-62 NSCLC, with M14 melanoma, with MOLT-4 leukemia and with SF-295 CNS was greater than 100 µM throughout. Also, the TGI with SK-MEL-28 melanoma, in the assay with TK-10 renal and with UACC-257 melanoma was greater than 100 µM each time.

For the compound `O=C(Cc1ccccc1)NN1C(=O)C(Cl)C1c1cc(Br)ccc1O` (configuration not stated), the TGI with A549 NSCLC is greater than 100 µM; in the assay with HCC-2998 colon it was greater than 100 µM; with HOP-62 NSCLC, 52.9 µM; in the assay with M14 melanoma it was 19 µM; with MOLT-4 leukemia, 8.07 µM; with SF-295 CNS it was 94.3 µM. Further, the TGI in the assay on SK-MEL-28 melanoma, in the assay on TK-10 renal and in the assay with UACC-257 melanoma was greater than 100 µM throughout.

As for `CC(C)(C)c1ccc2c(c1)S(=O)(=O)Nc1ccccc1NS(=O)(=O)c1cc(C(C)(C)C)ccc1OCCOCCOCCO2`, the TGI with A549 NSCLC, in the assay on HCC-2998 colon, in the assay on HOP-62 NSCLC, with M14 melanoma, in the assay on MOLT-4 leukemia and in the assay on SF-295 CNS was greater than 100 µM throughout. Moreover, the TGI in the assay on SK-MEL-28 melanoma, with TK-10 renal and in the assay with UACC-257 melanoma was greater than 100 µM in each case.

As to `COc1ccc(C(=O)C(C(=O)CCC(=O)Nc2cccc(Cl)c2)c2ccc(OC)cc2)cc1` (configuration not stated), the TGI in the assay on A549 NSCLC, in the assay with HCC-2998 colon, in the assay on HOP-62 NSCLC, in the assay with M14 melanoma, in the assay with MOLT-4 leukemia and in the assay on SF-295 CNS was greater than 100 µM each time. For the same compound, the TGI with SK-MEL-28 melanoma, with TK-10 renal and in the assay on UACC-257 melanoma was greater than 100 µM throughout.

Take `Cc1ccn2c(c1)nc1nc3ccccc3nc12`: the TGI in the assay on A549 NSCLC, in the assay with HOP-62 NSCLC, in the assay with M14 melanoma, in the assay with SF-295 CNS, in the assay on SK-MEL-28 melanoma and in the assay on TK-10 renal was greater than 100 µM each time. The TGI in the assay with UACC-257 melanoma is greater than 100 µM.

`C1=CC2SSSC2C1` (configuration not stated): the TGI in the assay on A549 NSCLC, in the assay with HCC-2998 colon, with HOP-62 NSCLC, in the assay on M14 melanoma, with MOLT-4 leukemia and in the assay with SF-295 CNS was greater than 100 µM throughout. For the same compound, the TGI with SK-MEL-28 melanoma, in the assay with TK-10 renal and with UACC-257 melanoma was greater than 100 µM in each case.

With `CCOC(=O)c1c(C)n(Cc2ccc(Cl)cc2Cl)c2c1c(CN(C)C)c(O)c1[nH]cnc12`, the GI50 in the assay on A549 NSCLC is 15.9 µM; in the assay with HOP-62 NSCLC it was 12.8 µM; in the assay on M14 melanoma it was 24.2 µM; with MOLT-4 leukemia it was 0.908 µM; in the assay on SF-295 CNS, 28.1 µM; with SK-MEL-28 melanoma it was 20.9 µM. Moreover, the GI50 is 22.7 µM with TK-10 renal and 20.5 µM in the assay with UACC-257 melanoma. Also, the TGI in the assay with A549 NSCLC stood at 32.5 µM; in the assay on HOP-62 NSCLC it was 29.5 µM; in the assay on M14 melanoma, 43.9 µM; with MOLT-4 leukemia, 4.52 µM; in the assay with SF-295 CNS, 65 µM; in the assay on SK-MEL-28 melanoma, 41 µM. Besides, the TGI in the assay on TK-10 renal worked out at 39.1 µM; in the assay on UACC-257 melanoma it was 39.5 µM.

`COc1cccc2c1C(=O)c1c(O)c3c(c(O)c1C2=O)C[C@@](O)(C(C)=O)C[C@@H]3OC1OC(C)C(O)C(N)C1Br` (some centres not stated): the TGI was 0.262 µM with A549 NSCLC; 0.327 µM and 0.489 µM with HCC-2998 colon; 0.0785 µM and 0.236 µM in the assay on HOP-62 NSCLC; 0.257 µM and 0.669 µM with M14 melanoma; 0.0266 µM in the assay on MOLT-4 leukemia; 0.419 µM and 0.194 µM in the assay on SF-295 CNS. Moreover, the TGI in the assay with SK-MEL-28 melanoma is 1.28 µM and 1.32 µM; in the assay on TK-10 renal, 0.407 µM; with UACC-257 melanoma it was 0.487 µM and 1.14 µM. For the same compound, the GI50 in the assay with HCC-2998 colon is 0.168 µM; with M14 melanoma it was 0.0535 µM; in the assay with SF-295 CNS it was 0.0159 µM; in the assay on SK-MEL-28 melanoma, 0.22 µM; in the assay on UACC-257 melanoma it was 0.123 µM.

For `CCOc1ccccc1NC(=O)CC(C(=O)OC)C(=O)C(=O)OC` (configuration not stated), the TGI in the assay on A549 NSCLC, in the assay on HCC-2998 colon, in the assay with HOP-62 NSCLC, in the assay on M14 melanoma, in the assay with MOLT-4 leukemia and in the assay on SF-295 CNS was greater than 100 µM each time. The TGI in the assay with SK-MEL-28 melanoma, in the assay on TK-10 renal and with UACC-257 melanoma was greater than 100 µM throughout.

For the compound `COC1(OC)C2(Cl)C(Cl)=C(Cl)C1(Cl)C1C=CC=CC12` (configuration not stated), the TGI with A549 NSCLC, in the assay with HCC-2998 colon, in the assay with HOP-62 NSCLC, with M14 melanoma, in the assay with SF-295 CNS and in the assay with SK-MEL-28 melanoma was greater than 100 µM each time. For the same compound, the TGI with TK-10 renal and with UACC-257 melanoma was greater than 100 µM in each case.

For the compound `NC(N)=N/N=C(\c1nc2ccc([N+](=O)[O-])cc2[nH]c1=O)C(O)c1ccc([N+](=O)[O-])cc1` (configuration not stated), the TGI was greater than 100 µM with A549 NSCLC; 79.8 µM with HCC-2998 colon; greater than 100 µM in the assay on HOP-62 NSCLC; greater than 100 µM with M14 melanoma; greater than 100 µM with MOLT-4 leukemia; greater than 100 µM with SF-295 CNS. The TGI with SK-MEL-28 melanoma and in the assay with UACC-257 melanoma was greater than 100 µM in each case.

As for `Cc1cccc(NC(=O)C(=O)C(C(=O)c2ccc3ccccc3c2)C2OC(=O)c3ccccc32)c1C` (configuration not stated), the TGI with A549 NSCLC came to 69.2 µM; with HCC-2998 colon it was 19.5 µM; in the assay on HOP-62 NSCLC it was 24.7 µM; with M14 melanoma it was 33.4 µM; with MOLT-4 leukemia it was 32.2 µM; in the assay with SK-MEL-28 melanoma, 39 µM. The TGI was determined as 50.9 µM in the assay on TK-10 renal and 35.1 µM with UACC-257 melanoma.
